Patent publication US12559506B2, “Indazole based compounds and associated methods of use” (Arvinas Operations, Inc., priority 2021, dated 2026)
Read-outs that look alike come from different tables or passages of the source.

Molecular target: T1, LRRK2 (endogenous, HiBit tagged) (Homo sapiens, UniProt Q5S007)
T1 construct: endogenous in cells; host or cells: HEK293 cells with HiBit knock-in at the endogenous LRRK2 locus, stably expressing firefly luciferase
Assay: Endogenous LRRK2 degradation assay, endogenous gene C-terminally HiBit-tagged in HEK293 cells (Nano-Glo Dual Luciferase)
Type: cell-based
Procedure, shortened: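 LRRK2-HiBit quantified via Nano-Glo Dual Luciferase in HEK293 knock-in cells co-expressing firefly luciferase, after 24 h exposure to compound (1 μM final top, 1:3, 11 points). Values normalised to DMSO median per plate and curve-fitted; Alamar Blue viability run alongside.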

[1] = endogenous HiBit-tagged LRRK2 in HEK293 cells, 24 hours treatment, read-out: *Endogenous WT DC50
[2] = endogenous HiBit-tagged LRRK2, HEK293 cells, 24 hours, read-out: **Endogenous WT Dmax (%)
[3] = endogenous HiBit-tagged LRRK2, HEK293 cells, 24 hours, read-out: *Endogenous WT DC50
[4] = endogenous HiBit-tagged LRRK2 in HEK293 cells, 24 hours treatment, read-out: Endogenous WT DC50
[5] = endogenous HiBit-tagged LRRK2 in HEK293 cells, 24 hours treatment, read-out: Endogenous WT Dmax
[6] = endogenous HiBit-tagged LRRK2 in HEK293 cells, 24 hours treatment, read-out: **Endogenous WT Dmax (%)

T1 sequence (Q5S007 whole entry): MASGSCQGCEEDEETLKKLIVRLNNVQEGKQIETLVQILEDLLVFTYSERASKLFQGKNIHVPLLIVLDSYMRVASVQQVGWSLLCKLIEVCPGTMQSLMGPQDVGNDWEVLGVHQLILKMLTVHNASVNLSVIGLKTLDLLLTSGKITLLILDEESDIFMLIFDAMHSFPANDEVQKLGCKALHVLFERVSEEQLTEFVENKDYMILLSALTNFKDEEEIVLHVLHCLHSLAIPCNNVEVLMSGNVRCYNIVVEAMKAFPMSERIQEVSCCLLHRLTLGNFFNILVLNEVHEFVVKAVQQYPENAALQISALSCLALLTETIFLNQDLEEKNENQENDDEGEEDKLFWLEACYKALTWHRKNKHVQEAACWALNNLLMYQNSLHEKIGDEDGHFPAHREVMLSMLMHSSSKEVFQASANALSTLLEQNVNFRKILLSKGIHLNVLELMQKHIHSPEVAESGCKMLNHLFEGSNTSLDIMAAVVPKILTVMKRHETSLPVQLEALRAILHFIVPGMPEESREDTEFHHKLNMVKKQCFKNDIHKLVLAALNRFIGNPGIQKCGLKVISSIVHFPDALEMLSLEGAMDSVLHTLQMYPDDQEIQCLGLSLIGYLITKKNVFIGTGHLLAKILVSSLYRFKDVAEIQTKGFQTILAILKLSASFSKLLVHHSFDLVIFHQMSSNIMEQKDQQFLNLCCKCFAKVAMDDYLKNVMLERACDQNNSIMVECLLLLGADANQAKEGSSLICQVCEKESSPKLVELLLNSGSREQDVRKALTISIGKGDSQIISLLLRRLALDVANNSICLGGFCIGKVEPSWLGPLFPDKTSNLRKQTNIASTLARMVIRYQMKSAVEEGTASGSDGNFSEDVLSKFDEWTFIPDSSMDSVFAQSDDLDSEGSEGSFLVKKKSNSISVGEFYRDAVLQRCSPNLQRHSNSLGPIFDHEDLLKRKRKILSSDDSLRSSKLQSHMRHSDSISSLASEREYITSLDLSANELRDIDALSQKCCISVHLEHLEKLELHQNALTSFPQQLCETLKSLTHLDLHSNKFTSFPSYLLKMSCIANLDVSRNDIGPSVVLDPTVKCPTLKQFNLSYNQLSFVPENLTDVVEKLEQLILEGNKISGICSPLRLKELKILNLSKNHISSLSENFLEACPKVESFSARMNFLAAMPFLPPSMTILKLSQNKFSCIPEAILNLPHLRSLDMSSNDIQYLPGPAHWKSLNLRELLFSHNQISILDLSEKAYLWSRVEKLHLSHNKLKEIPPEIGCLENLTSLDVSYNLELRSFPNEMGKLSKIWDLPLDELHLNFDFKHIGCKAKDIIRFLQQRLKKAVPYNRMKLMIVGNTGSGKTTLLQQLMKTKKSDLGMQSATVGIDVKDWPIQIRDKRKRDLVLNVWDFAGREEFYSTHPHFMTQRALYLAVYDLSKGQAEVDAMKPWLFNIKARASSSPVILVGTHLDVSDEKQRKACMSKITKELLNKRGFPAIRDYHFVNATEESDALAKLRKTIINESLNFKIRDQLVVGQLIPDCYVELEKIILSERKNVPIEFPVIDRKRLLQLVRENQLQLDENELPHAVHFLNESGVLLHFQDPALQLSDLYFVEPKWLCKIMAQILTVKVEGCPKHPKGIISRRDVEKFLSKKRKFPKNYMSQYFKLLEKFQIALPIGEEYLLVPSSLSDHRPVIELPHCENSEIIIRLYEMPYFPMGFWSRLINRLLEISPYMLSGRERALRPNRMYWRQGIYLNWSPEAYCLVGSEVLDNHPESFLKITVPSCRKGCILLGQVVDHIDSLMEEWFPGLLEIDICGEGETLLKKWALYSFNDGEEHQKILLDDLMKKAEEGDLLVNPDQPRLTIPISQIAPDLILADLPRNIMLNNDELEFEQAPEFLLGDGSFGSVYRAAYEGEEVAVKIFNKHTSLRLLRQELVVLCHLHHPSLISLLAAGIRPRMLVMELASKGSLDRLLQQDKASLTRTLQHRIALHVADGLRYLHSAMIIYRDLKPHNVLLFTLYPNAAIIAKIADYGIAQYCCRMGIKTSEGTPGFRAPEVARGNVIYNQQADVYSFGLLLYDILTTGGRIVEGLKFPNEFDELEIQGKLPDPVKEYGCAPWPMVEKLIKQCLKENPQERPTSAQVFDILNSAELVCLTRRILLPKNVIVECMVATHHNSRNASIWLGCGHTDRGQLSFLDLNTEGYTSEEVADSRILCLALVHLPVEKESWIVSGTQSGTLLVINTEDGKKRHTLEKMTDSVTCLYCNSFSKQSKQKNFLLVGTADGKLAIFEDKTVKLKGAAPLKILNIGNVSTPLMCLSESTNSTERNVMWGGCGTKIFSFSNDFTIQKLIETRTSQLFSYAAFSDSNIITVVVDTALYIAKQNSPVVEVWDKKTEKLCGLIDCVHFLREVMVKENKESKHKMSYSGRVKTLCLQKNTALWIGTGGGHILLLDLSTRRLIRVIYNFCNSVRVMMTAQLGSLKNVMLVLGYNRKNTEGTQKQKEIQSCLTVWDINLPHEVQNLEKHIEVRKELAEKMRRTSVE

DC50 [1]	DC50 [4]	Dmax [5]	Dmax [6]	Structure (SMILES)	also measured
< 10 nM	–	–	–	COc1c(N2CCC(CN3CCN(CC4CCN(c5cc(-c6n[nH]c7cnc(OC8(C)CC8)cc67)ncn5)CC4)C[C@H]3C)CC2)ccc2c1CN(C1CCC(=O)NC1=O)C2=O (stereo partly drawn) [Compound 324, 3-[4-methoxy-5-(4-{[(2R)-2-methyl-4-[(1-{6-[5-(1-methylcyclopropoxy)-1H-pyrazolo[3,4-c]pyridin-3-yl]pyrimidin-4-yl}piperidin-4-yl)methyl]piperazin-1-yl]methyl}piperidin-1-yl)-1-oxo-2,3-dihydro-1H-isoindol-2-yl]piperidine-2,6-dione]	–
–	–	–	–	CC1(Oc2ccc3[nH]nc(-c4cc(N5CCN(CC6(F)CCN(CC7CCN(c8ccc9c(c8F)CN(C8CCC(=O)NC8=O)C9=O)CC7)CC6)CC5)ncn4)c3c2)CC1 (stereo not shown) [Compound 182, 3-[4-fluoro-5-[4-[[4-fluoro-4-[[4-[6-[5-(1-methylcyclopropoxy)-1H-indazol-3-yl]pyrimidin-4-yl]piperazin-1-yl]methyl]-1-piperidyl]methyl]-1-piperidyl]-1-oxo-isoindolin-2-yl]piperidine-2,6-dione]	Dmax [2]: ≥ 70%; DC50 [3]: < 10 nM
–	–	–	–	CC1(Oc2cc3c(-c4cc(N5CCN(CC6(F)CCN(CC7CCN(c8ccc9c(c8F)CN(C8CCC(=O)NC8=O)C9=O)CC7)CC6)CC5)ncn4)n[nH]c3cc2F)CC1 (stereo not shown) [Compound 189, 3-[4-fluoro-5-[4-[[4-fluoro-4-[[4-[6-[6-fluoro-5-(1-methylcyclopropoxy)-1H-indazol-3-yl]pyrimidin-4-yl]piperazin-1-yl]methyl]-1-piperidyl]methyl]-1-piperidyl]-1-oxo-isoindolin-2-yl]piperidine-2,6-dione]	Dmax [2]: ≥ 70%; DC50 [3]: < 10 nM
–	< 10 nM	50 to 70%	–	CC1(Oc2ccc3[nH]nc(-c4cc(N5CCN(C[C@H]6CC[C@H](OC7CCN(c8ccc9c(c8Cl)CN(C8CCC(=O)NC8=O)C9=O)CC7)CC6)CC5)ncn4)c3c2)CC1 (stereo partly shown) [Compound 243, 3-[4-chloro-1-oxo-5-(4-{[(1r,4r)-4-[(4-{6-[5-(1-methylcyclopropoxy)-1H-indazol-3-yl]pyrimidin-4-yl}piperazin-1-yl)methyl]cyclohexyl]oxy}piperidin-1-yl)-2,3-dihydro-1H-isoindol-2-yl]piperidine-2,6-dione]	–
–	< 10 nM	50 to 70%	–	CC1(Oc2ccc3[nH]nc(-c4cc(N5CCC(O[C@H]6CC[C@H](CN7CCN(c8ccc9c(c8F)CN(C8CCC(=O)NC8=O)C9=O)CC7(C)C)CC6)CC5)ncn4)c3c2)CC1 (stereo partly shown) [Compound 361, 3-[5-(3,3-dimethyl-4-{[(1r,4r)-4-[(1-{6-[5-(1-methylcyclopropoxy)-1H-indazol-3-yl]pyrimidin-4-yl}piperidin-4-yl)oxy]cyclohexyl]methyl}piperazin-1-yl)-4-fluoro-1-oxo-2,3-dihydro-1H-isoindol-2-yl]piperidine-2,6-dione]	–
< 10 nM	–	–	50 to 70%	COc1c(N2CCC(CN3CCN(CC4CCN(c5cc(-c6n[nH]c7cnc(OC8(C)CC8)cc67)ncn5)CC4)CC3(C)C)CC2)ccc2c1CN(C1CCC(=O)NC1=O)C2=O (stereo not shown) [Compound 277, 3-{5-[4-({2,2-dimethyl-4-[(1-{6-[5-(1-methylcyclopropoxy)-1H-pyrazolo[3,4-c]pyridin-3-yl]pyrimidin-4-yl}piperidin-4-yl)methyl]piperazin-1-yl}methyl)piperidin-1-yl]-4-methoxy-1-oxo-2,3-dihydro-1H-isoindol-2-yl}piperidine-2,6-dione]	–
< 10 nM	–	–	50 to 70%	COc1c(N2CCC(CN3C[C@@H](C)N(CC4CCN(c5cc(-c6n[nH]c7ccc(OC8(C)CC8)cc67)ncn5)CC4)[C@@H](C)C3)CC2)ccc2c1CN(C1CCC(=O)NC1=O)C2=O (stereo partly drawn) [Compound 287, 3-[5-(4-{[(3R,5S)-3,5-dimethyl-4-[(1-{6-[5-(1-methylcyclopropoxy)-1H-indazol-3-yl]pyrimidin-4-yl}piperidin-4-yl)methyl]piperazin-1-yl]methyl}piperidin-1-yl)-4-methoxy-1-oxo-2,3-dihydro-1H-isoindol-2-yl]piperidine-2,6-dione]	–
–	< 10 nM	50 to 70%	–	CC1(Oc2cc3c(-c4cc(N5CCC(CN6CCC(F)(CC7CCN(c8ccc9c(c8F)CN(C8CCC(=O)NC8=O)C9=O)CC7)CC6)CC5)ncn4)n[nH]c3cc2F)CC1 (stereo not shown) [Compound 232, 3-{4-fluoro-5-[4-({4-fluoro-1-[(1-{6-[6-fluoro-5-(1-methylcyclopropoxy)-1H-indazol-3-yl]pyrimidin-4-yl}piperidin-4-yl)methyl]piperidin-4-yl}methyl)piperidin-1-yl]-1-oxo-2,3-dihydro-1H-isoindol-2-yl}piperidine-2,6-dione]	–
–	< 10 nM	≥ 70%	–	COc1c(N2CCC(CN3CCN(CC4CCN(c5cc(-c6n[nH]c7ccc(OC8(C)CC8)cc67)ncn5)CC4)CC3)CC2)ccc2c1CN(C1CCC(=O)NC1=O)C2=O (stereo not shown) [Compound 211, 3-[4-methoxy-5-[4-[[4-[[1-[6-[5-(1-methylcyclopropoxy)-1H-indazol-3-yl]pyrimidin-4-yl]-4-piperidyl]methyl]piperazin-1-yl]methyl]-1-piperidyl]-1-oxo-isoindolin-2-yl]piperidine-2,6-dione]	–
< 10 nM	–	–	50 to 70%	C[C@@H]1CN(CC2CCN(c3ccc4c(c3F)CN(C3CCC(=O)NC3=O)C4=O)CC2)C[C@H](C)N1CC1CCN(c2cc(-c3n[nH]c4ccc(OC5(C)CC5)cc34)ncn2)CC1 (stereo partly drawn) [Compound 284, 3-[5-(4-{[(3R,5S)-3,5-dimethyl-4-[(1-{6-[5-(1-methylcyclopropoxy)-1H-indazol-3-yl]pyrimidin-4-yl}piperidin-4-yl)methyl]piperazin-1-yl]methyl}piperidin-1-yl)-4-fluoro-1-oxo-2,3-dihydro-1H-isoindol-2-yl]piperidine-2,6-dione]	–
–	< 10 nM	50 to 70%	–	CC1(Oc2ccc3[nH]nc(-c4cc(N5CCC(OCCN6CCC7(CN(c8ccc9c(c8F)CN(C8CCC(=O)NC8=O)C9=O)C7)C(F)(F)C6)CC5)ncn4)c3c2)CC1 (stereo not shown) [Compound 362, 3-[5-(5,5-difluoro-7-{2-[(1-{6-[5-(1-methylcyclopropoxy)-1H-indazol-3-yl]pyrimidin-4-yl}piperidin-4-yl)oxy]ethyl}-2,7-diazaspiro[3.5]nonan-2-yl)-4-fluoro-1-oxo-2,3-dihydro-1H-isoindol-2-yl]piperidine-2,6-dione]	–
< 10 nM	–	–	50 to 70%	CC1(Oc2ccc3n[nH]c(-c4cc(N5CCC(O[C@H]6C[C@H](N7CC[C@@H](c8ccc9c(c8)CN(C8CCC(=O)NC8=O)C9=O)[C@@H](F)C7)C6)CC5)ncn4)c3c2)CC1 (stereo partly shown) [Compound 342, 3-{5-[(3r,4s)-3-fluoro-1-[(1r,3r)-3-[(1-{6-[5-(1-methylcyclopropoxy)-2H-indazol-3-yl]pyrimidin-4-yl}piperidin-4-yl)oxy]cyclobutyl]piperidin-4-yl]-1-oxo-2,3-dihydro-1H-isoindol-2-yl}piperidine-2,6-dione]	–
< 10 nM	–	–	≥ 70%	C[C@@H]1CN(CC2CCN(c3ccc4c(c3F)CN(C3CCC(=O)NC3=O)C4=O)CC2)CCN1CC1CCN(c2cc(-c3n[nH]c4cnc(OC5(C)CC5)cc34)ncn2)CC1 (stereo partly drawn) [Compound 263, 3-[4-fluoro-5-(4-{[(3R)-3-methyl-4-[(1-{6-[5-(1-methylcyclopropoxy)-1H-pyrazolo[3,4-c]pyridin-3-yl]pyrimidin-4-yl}piperidin-4-yl)methyl]piperazin-1-yl]methyl}piperidin-1-yl)-1-oxo-2,3-dihydro-1H-isoindol-2-yl]piperidine-2,6-dione]	–
